Structures are written as SMILES.

Common to all, as to experiment: Bliss excess, mean over the matrix (fraction); higher = more synergy
The subject of assay [1] is COLO-824 (Breast Carcinoma). The essentials:
(§1)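 After 24 hours at 37°C and 5% CO2 in 1536-well plates, cells in DMEM/F12 or RPMI plus 10% FBS received two-drug dose matrices for 72 hours. Viability came from CellTiter-Glo 2.0 luminescence and was scaled as inhibition, anchored at 0 by vehicle wells and at 1 by blank wells. Combination Emax is taken as the second-highest inhibition in the matrix, and Bliss excess as the observed combination effect less EA + EB − EA·EB, with EA and EB the single-agent effects.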

For a further assay, the system named is GI-ME-N (Neuroblastoma). The essentials:
as §1

Assay [2] concerns CAPAN-2 (Pancreatic Carcinoma). The essentials:
as §1

For assay [3], the system named is NCI-H1581 (Non-Small Cell Lung Carcinoma). The essentials:
as §1

A further assay deals with PA-1 (Ovarian Carcinoma). A digest of the protocol: as §1
Assay [4] concerns MDST8 (Colorectal Carcinoma). A digest of the protocol:
as §1

For `NC1(C(=O)N[C@@H](CCO)c2ccc(Cl)cc2)CCN(c2ncnc3[nH]ccc23)CC1` [Capivasertib] + CCN(CCO)CCCOc1ccc2c(Nc3cc(CC(=O)Nc4cccc(F)c4)[nH]n3)ncnc2c1 [AZD2811] (first compound max 10 µM, 7x7, partner max 1 µM), the Bliss excess in assay [1] was -0.0183; in the assay on GI-ME-N (Neuroblastoma) it was -0.0557; in assay [2], -0.0213; in assay [3] it was -0.11; with PA-1 (Ovarian Carcinoma), 0.0219; in assay [4] it was 0.011.

Consider `NC1(C(=O)N[C@@H](CCO)c2ccc(Cl)cc2)CCN(c2ncnc3[nH]ccc23)CC1` [Capivasertib] + COc1nnc2ccc(N3CCC(c4ccc(OCCN5CCN(C)C(=O)[C@H]5C)cc4)CC3)nn12 [AZD5153] (first compound max 10 µM, 7x7, partner max 1 µM), for which the Bliss excess is 0.0218 in assay [1]; -0.0309 in the assay on GI-ME-N (Neuroblastoma); -0.0143 in assay [2]; -0.0303 in assay [3]; -0.0386 in the assay with PA-1 (Ovarian Carcinoma); 0.105 in assay [4].

As for `NC1(C(=O)N[C@@H](CCO)c2ccc(Cl)cc2)CCN(c2ncnc3[nH]ccc23)CC1` [Capivasertib] + C[C@@H]1COCCN1C2=NC(=NC(=C2)C3(CC3)[S@](=N)(=O)C)C4=C5C=CNC5=NC=C4 [AZD6738] (first compound max 10 µM, 7x7, partner max 10 µM), the Bliss excess in assay [1] is -0.0655; in the assay on GI-ME-N (Neuroblastoma), -0.0269; in assay [2], -0.0194; in assay [3] it was -0.0363; with PA-1 (Ovarian Carcinoma), -0.0938; in assay [4] it was -0.0277.

For the molecule `NC1(C(=O)N[C@@H](CCO)c2ccc(Cl)cc2)CCN(c2ncnc3[nH]ccc23)CC1` [Capivasertib] + Cn1cnc2c(F)c(Nc3ccc(Br)cc3Cl)c(C(=O)NOCCO)cc21 [Selumetinib] (first compound max 10 µM, 7x7, partner max 10 µM), the Bliss excess was 0.0166 in assay [1]; -0.0544 with GI-ME-N (Neuroblastoma); 0.0332 in assay [2]; 0.0371 in assay [3]; -0.0114 in the assay with PA-1 (Ovarian Carcinoma); 0.0211 in assay [4].

With `Cc1nc(Nc2ncc(C(=O)Nc3c(C)cccc3Cl)s2)cc(N2CCN(CCO)CC2)n1` [Dasatinib] + CC(=O)Nc1cccc(-n2c(=O)n(C3CC3)c(=O)c3c(Nc4ccc(I)cc4F)n(C)c(=O)c(C)c32)c1 [Trametinib] (first compound max 2 µM, 7x7, partner max 1 µM), the Bliss excess in assay [1] is -0.0774; in the assay on GI-ME-N (Neuroblastoma), -0.0849; in assay [2] it was 0.0749; in assay [3] it was -0.0416; in the assay on PA-1 (Ovarian Carcinoma), 0.013; in assay [4], -0.106.

`COc1cccc2c1C(=O)c1c(O)c3c(c(O)c1C2=O)C[C@@](O)(C(=O)CO)C[C@@H]3O[C@H]1C[C@H](N)[C@H](O)[C@H](C)O1` [Doxorubicin] + Cc1cc2ncnn2cc1Nc1ncc2c(n1)n(C1CCOCC1)c(=O)n2C [AZD7648] (first compound max 1 µM, 7x7, partner max 10 µM): the Bliss excess is 0.0742 in assay [1]; 0.0207 in the assay with GI-ME-N (Neuroblastoma); -0.0419 in assay [2]; 0.0529 in assay [3]; 0.0617 in the assay with PA-1 (Ovarian Carcinoma); 0.0756 in assay [4].

In the case of `COc1cc2ncnc(Nc3ccc(F)c(Cl)c3)c2cc1OCCCN1CCOCC1` [Gefitinib] + CC(C)n1c(=O)n(C)c2cnc3cc(F)c(-c4ccc(OCCCN5CCCCC5)nc4)cc3c21 [AZD1390] (first compound max 10 µM, 7x7, partner max 0.3 µM), the Bliss excess is -0.0795 in assay [1]; -0.0827 with GI-ME-N (Neuroblastoma); -0.0652 in assay [2]; -0.0457 in assay [3]; -0.0949 in the assay with PA-1 (Ovarian Carcinoma); -0.0584 in assay [4].

In the case of `CS(=O)(=O)CCNCc1ccc(-c2ccc3ncnc(Nc4ccc(OCc5cccc(F)c5)c(Cl)c4)c3c2)o1` [Lapatinib] + C[C@@H](Oc1cc(-c2cnn(C3CCNCC3)c2)cnc1N)c1c(Cl)ccc(F)c1Cl [Crizotinib] (first compound max 10 µM, 7x7, partner max 10 µM), the Bliss excess in assay [1] is 0.002; in the assay with GI-ME-N (Neuroblastoma), -0.0505; in assay [2], -0.0341; in assay [3], 0.0208; with PA-1 (Ovarian Carcinoma) it was 0.0128; in assay [4], -0.0095.

For `CC(=O)c1c(C)c2cnc(Nc3ccc(N4CCNCC4)cn3)nc2n(C2CCCC2)c1=O` [Palbociclib] + CC1(C)CCC(CN2CCN(c3ccc(C(=O)NS(=O)(=O)c4ccc(NCC5CCOCC5)c([N+](=O)[O-])c4)c(Oc4cnc5[nH]ccc5c4)c3)CC2)=C(c2ccc(Cl)cc2)C1 [Venetoclax] (first compound max 10 µM, 7x7, partner max 1 µM), the Bliss excess in assay [1] was 0.0365; in the assay with GI-ME-N (Neuroblastoma), -0.0514; in assay [2], -0.0473; in assay [3], -0.029; with PA-1 (Ovarian Carcinoma), 0.0133; in assay [4], -0.0059.

`CC(=O)c1c(C)c2cnc(Nc3ccc(N4CCNCC4)cn3)nc2n(C2CCCC2)c1=O` [Palbociclib] + Cc1c2c(nn1C)CSCc1cc(n(C)n1)CSc1cc(c3ccccc3c1)OCCCc1c(C(=O)O)n(C)c3c-2c(Cl)ccc13 [AZD5991] (first compound max 10 µM, 7x7, partner max 1 µM): the Bliss excess in assay [1] was -0.0768; with GI-ME-N (Neuroblastoma), -0.0873; in assay [2], -0.0593; in assay [3] it was -0.0173; with PA-1 (Ovarian Carcinoma), 0.0052; in assay [4] it was -0.0134.

Values taken from the supplement of paper PMC11061612.
